The source made the active and inactive calls. The calls are words filed in the database; no cut-off is given here.
What was measured:
Caenorhabditis elegans [1] = assay: Induction of oocyte production in Caenorhabditis elegans Bristol isolate N2 with puf-1; lip-1 double mutant
Caenorhabditis elegans [2] = assay: Induction of oocyte production in Caenorhabditis elegans Bristol isolate N2 with […]; lip-1 double mutant at 100 uM; format: functional
Caenorhabditis elegans [3] = assay: Induction of oocyte production in Caenorhabditis elegans Bristol isolate N2 with […]; lip-1 double mutant assessed as change in oocyte-specific cellular morphology at 50 uM; format: functional
Caenorhabditis elegans [4] = assay: Decrease in activated MPK-1/ERK levels in Caenorhabditis elegans Bristol isolate N2 by Western blot method at 50 uM; format: functional, organism-based
Caenorhabditis elegans [5] = assay: Induction of oocyte production in Caenorhabditis elegans Bristol isolate N2 with […]; lip-1 double mutant assessed as expression of oocyte marker RME-2 50 uM; format: functional, organism-based

**Q.** How did the EC50 (Caenorhabditis elegans [1]) turn out when `N#CC(=C(/N)Sc1ccccc1N)/C(C#N)=C(\N)Sc1ccccc1N` was run?
**A.** Its EC50 is 2 µM.

**Q.** For `COc1cccc(-c2cc(=O)c3ccccc3o2)c1N`, which Activity (Caenorhabditis elegans [2]) is on record?
**A.** Its Activity is 5.3%.

**Q.** Which Activity (Caenorhabditis elegans [3]) does the source give for `O=C(NOC[C@H](O)CO)c1ccc(F)c(F)c1Nc1ccc(I)cc1F` [MIRDAMETINIB] here?
**A.** The Activity was 91%.

**Q.** What about the Activity (Caenorhabditis elegans [4]) of the same molecule?
**A.** Its Activity is “Active”.

**Q.** What about the Activity (Caenorhabditis elegans [5]) of the same molecule?
**A.** Its Activity is “Active”.
